Patent US20080311076A1, “Morpholinylanilinoquinazoline Derivatives For Use As Antiviral Agents” (ARROW THERAPEUTICS LIMITED, priority 2004, published 2008)

Tested on: HCV replicon cells Huh 9B
Experiment: HCV replicon assay (luciferase) in Huh 9B replicon cells
Assay type: cell-based
Conditions: Hepatitis C virus; concentration reducing replicon level (luciferase activity) by 50% vs untreated cell control; 72 h incubation
Method: HCV replicon cells Huh 9B (ReBlikon), containing the firefly luciferase—ubiquitin—neomycin phosphotransferase fusion protein and EMCV-IRES driven HCV polyprotein with cell culture adaptive mutations.
Cells were cultured at 37° C. in a 5% CO2 environment and split twice a week on seeding at 2×10E6 cells/flask on day 1 and 1×10E6 3 days later. Some 0.25 mg/ml G418 was added to the culture medium (125 ul per 25 ml) but not the assay medium.
The culture medium consisted of DMEM with […] glucose and glutamax (Gibco 61965-026) supplemented with 1× non-essential amino acids, penicillin (100 IU/ml)/streptomycin (100 μg/ml), FCS (10%, 50 ml) and 1 mg/ml G418 (Invitrogen cat no 10131-027) & 10% foetal calf serum.
A flask of cells was trypsinised and a cell count carried out. Cells were diluted to 100,000 cells/ml and 100 μl of this used to seed one opaque white 96-well plate (for the replicon assay) and one flat-bottomed clear plate (for the tox assay) for every seven compounds to be tested for IC50. Wells G12 and H12 were left empty in the clear plate as the blank. Plates were then incubated at 37° C. in a 5% CO2 environment for 24 h.
On the following day compound dilutions are made up in medium at twice their desired final concentration in a clear round bottomed plate. All dilutions have a final DMSO concentration of 1%.
Once the dilution plate had been made up, controls and compounds were transferred to the assay plate (containing the cells) at 100 μl/well in duplicate plates.
Exception: in the white (replicon) plate, no compound was added to wells A1 and A2 and 100 μl of 1% DMSO was added to these instead. In the clear (Tox) plate, wells E12 & F12 only contained the DMSO control. Plates were then incubated at 37° C. with 5% CO2 for 72 h.
At the end of the incubation time, the cells in the white plate were harvested by washing with 200 μl/well of warm (37° C.) PBS and lysed with 20 μl cell culture lysis buffer (Promega). After 5 min incubation @ RT, luciferin solution was added to the luciferase assay buffer (LARB at 200 μl per 10 ml LARB. The M injector of the microplate luminometer (Lmax, Molecular Devices) was primed with […] injections. Plate were inserted into the luminometer and 100 μl luciferase assay reagent was added by the injector on the luminometer. The signal was measured using a 1 second delay followed by a 4 second measurement programme. The IC50, the concentration of the drug required for reducing the replicon level by 50% in relation to the untreated cell control value, can be calculated from the plot of the percentage reduction of the luciferase activity vs. drug concentration.

Question: For FC(F)(F)c1cc(N2CCOCC2)ccc1Nc1ncnc2ccc(I)cc12 [Example 39, (6-Iodo-quinazolin-4-yl)-(4-morpholin-4-yl-2-trifluoromethyl-phenyl)-amine], which IC50 is on record?
Answer: < 1 µM

Question: O=C(Nc1ccc(-c2ccc3ncnc(Nc4ccc(N5CCOCC5)cc4)c3c2)cc1)OCc1ccccc1 [Example 34, {4-[4-(4-Morpholin-4-yl-phenylamino)-quinazolin-6-yl]-phenyl}-carbamic acid benzyl ester] was tested. Which IC50 did it give?
Answer: < 1 µM

Question: Which IC50 does the source give for COc1cc(Nc2ncnc3ccc(-c4cccs4)cc23)ccc1N1CCOCC1 [Example 42, (3-Methoxy-4-morpholin-4-yl-phenyl)-(6-thiophen-2-yl-quinazolin-4-yl)-amine] here?
Answer: < 1 µM

Question: For Cc1csc(-c2ccc3ncnc(Nc4ccc(N5CCOCC5)cc4)c3c2)c1 [Example 20, [6-(4-Methyl-thiophen-2-yl)-quinazolin-4-yl]-(4-morpholin-4-yl-phenyl)-amine], which IC50 is on record?
Answer: < 5 µM

Question: Ic1ccc2ncnc(Nc3ccc(N4CCOCC4)cc3)c2c1 [Example 2, (6-Iodo-quinazolin-4-yl)-(4-morpholin-4-yl-phenyl)-amine] was tested. Which IC50 did it give?
Answer: < 1 µM

Question: For CC(C)N(c1ccc(N2CCOCC2)cc1)c1ncnc2ccc(-c3cccs3)cc12 [Example 48, Isopropyl-(4-morpholin-4-yl-phenyl)-(6-thiophen-2-yl-quinazolin-4-yl)-amine], which IC50 is on record?
Answer: < 5 µM

Question: With COc1ccc(CNC(=O)c2ccc3ncnc(Nc4ccc(N5CCOCC5)cc4)c3c2)cc1 [Example 26, 4-(4-Morpholin-4-yl-phenylamino)-quinazoline-6-carboxylic acid 4-methoxy-benzylamide] as the compound, how does the IC50 read?
Answer: < 5 µM

Question: Which IC50 does the source give for CC(C)CCN(c1ccc(N2CCOCC2)cc1)c1ncnc2ccc(-c3cccs3)cc12 [Example 49, (3-Methyl-butyl)-(4-morpholin-4-yl-phenyl)-(6-thiophen-2-yl-quinazolin-4-yl)-amine] here?
Answer: < 5 µM

Question: Brc1ccc2ncnc(Nc3ccc(N4CCOCC4)cc3)c2c1 [Example 1, (6-Bromo-quinazolin-4-yl)-(4-morpholin-4-yl-phenyl)-amine] was tested. Which IC50 did it give?
Answer: < 5 µM

Question: N#Cc1ccc(-c2ccc3ncnc(Nc4ccc(N5CCOCC5)cc4)c3c2)cc1 [Example 24, 4-[4-(4-Morpholin-4-yl-phenylamino)-quinazolin-6-yl]-benzonitrile] was tested. Which IC50 did it give?
Answer: < 5 µM

Question: Which IC50 does the source give for OCc1ccc(-c2ccc3ncnc(Nc4ccc(N5CCOCC5)cc4)c3c2)o1 [Example 8, {5-[4-(4-morpholin-4-yl-phenylamino)-quinazolin-6-yl]-furan-2-yl}-methanol] here?
Answer: < 1 µM

Question: For CS(=O)(=O)c1ccc(-c2ccc3ncnc(Nc4ccc(N5CCOCC5)cc4)c3c2)cc1 [Example 22, [6-(4-Methanesulfonyl-phenyl)-quinazolin-4-yl]-(4-morpholin-4-yl-phenyl)-amine], which IC50 is on record?
Answer: < 1 µM

Question: Which IC50 does the source give for c1nc(Nc2ccc(N3CCOCC3)cc2)c2cc(-c3ccc(C4OCCO4)o3)ccc2n1 [Example 6, [6-(5-[1,3]Dioxolan-2-yl-furan-2-yl)quinazolin-4-yl]-(4-morpholin-4-yl-phenyl)-amine] here?
Answer: < 5 µM

Question: CS(=O)(=O)Nc1cccc(-c2ccc3ncnc(Nc4ccc(N5CCOCC5)cc4)c3c2)c1 [Example 38, N-{3-[4-(4-Morpholin-4-yl-phenylamino)-quinazolin-6-yl]-phenyl}-methanesulfonamide] was tested. Which IC50 did it give?
Answer: < 5 µM

Question: With c1nc(Nc2ccc(N3CCOCC3)cc2)c2cc(-c3ccc(CN4CCOCC4)o3)ccc2n1 [Example 12, [6-(5-Morpholin-4-ylmethyl-furan-2-yl)-quinazolin-4-yl]-(4-morpholin-4-yl-phenyl)-amine] as the compound, how does the IC50 read?
Answer: < 1 µM

Question: O=C(O)c1ccc(-c2ccc3ncnc(Nc4ccc(N5CCOCC5)cc4)c3c2)s1 [Example 21, 5-[4-(4-Morpholin-4-yl-phenylamino)-quinazolin-6-yl]-thiophene-2-carboxylic acid] was tested. Which IC50 did it give?
Answer: < 25 µM

Question: CCN(c1ccc(N2CCOCC2)cc1)c1ncnc2ccc(-c3cccs3)cc12 [Example 45, Ethyl-(4-morpholin-4-yl-phenyl)-(6-thiophen-2-yl-quinazolin-4-yl)-amine] was tested. Which IC50 did it give?
Answer: < 5 µM

Question: Which IC50 does the source give for c1cc(-c2ccc3ncnc(Nc4ccc(N5CCOCC5)cc4)c3c2)cc(-n2cccn2)c1 [Example 23, (4-Morpholin-4-yl-phenyl)-[6-(3-pyrazol-1-yl-phenyl)-quinazolin-4-yl]-amine] here?
Answer: < 1 µM

Question: For CN(C)C(=O)c1ccc2ncnc(Nc3ccc(N4CCOCC4)cc3)c2c1 [Example 31, 4-(4-Morpholin-4-yl-phenylamino)-quinazoline-6-carboxylic acid dimethylamide], which IC50 is on record?
Answer: < 5 µM

Question: CCNC(=O)c1ccc2ncnc(Nc3ccc(N4CCOCC4)cc3)c2c1 [Example 32, 4-(4-Morpholin-4-yl-phenylamino)-quinazoline-6-carboxylic acid ethylamide] was tested. Which IC50 did it give?
Answer: < 5 µM

Question: For CS(=O)(=O)CCNCc1ccc(-c2ccc3ncnc(Nc4ccc(N5CCOCC5)cc4)c3c2)o1 [Example 9, (6-{5-[(2-Methanesulfonyl-ethylamino)-methyl]-furan-2-yl}-quinazolin-4-yl)-(4-morpholin-4-yl-phenyl)-amine], which IC50 is on record?
Answer: < 1 µM

Question: For c1csc(-c2ccc3ncnc(Nc4ccc(N5CCOCC5)cc4)c3c2)c1 [Example 15, (4-Morpholin-4-yl-phenyl)-(6-thiophen-2-yl-quinazolin-4-yl)-amine], which IC50 is on record?
Answer: < 1 µM

Question: With FC(F)(F)c1cc(N2CCOCC2)ccc1Nc1ncnc2ccc(-c3cccs3)cc12 [Example 40, (4-Morpholin-4-yl-2-trifluoromethyl-phenyl)-(6-thiophen-2-yl-quinazolin-4-yl)-amine] as the compound, how does the IC50 read?
Answer: < 1 µM

Question: Which IC50 does the source give for CNC(=O)c1ccc2ncnc(Nc3ccc(N4CCOCC4)cc3)c2c1 [Example 30, 4-(4-Morpholin-4-yl-phenylamino)-quinazoline-6-carboxylic acid methylamide] here?
Answer: < 5 µM

Question: Which IC50 does the source give for O=Cc1ccc(-c2ccc3ncnc(Nc4ccc(N5CCOCC5)cc4)c3c2)o1 [Example 7, 5-[4-(4-Morpholin 4-yl-phenylamino)-quinazolin-6-yl]-furan-2-carbaldehyde] here?
Answer: < 1 µM

Question: How did the IC50 turn out when CNCc1ccc(-c2ccc3ncnc(Nc4ccc(N5CCOCC5)cc4)c3c2)o1 [Example 14, [6-(5-Methylaminomethyl-furan-2-yl)-quinazolin-4-yl]-(4-morpholin4-yl-phenyl)-amine] was run?
Answer: < 25 µM

Question: How did the IC50 turn out when Cc1ccccc1-c1ccc2ncnc(Nc3ccc(N4CCOCC4)cc3)c2c1 [Example 17, (4-Morpholin-4-yl-phenyl)-(6-o-tolyl-quinazolin-4-yl)-amine] was run?
Answer: < 5 µM

Question: How did the IC50 turn out when CN(c1ccc(N2CCOCC2)cc1)c1ncnc2ccc(I)cc12 [Example 46, (6-Iodo-quinazolin-4-yl)-methyl-(4-morpholin-4-yl-phenyl)amine] was run?
Answer: < 1 µM

Question: How did the IC50 turn out when COc1cc(Nc2ncnc3ccc(I)cc23)ccc1N1CCOCC1 [Example 41, (6-Iodo-quinazolin-4-yl)-(3-methoxy-4-morpholin-4-yl-phenyl)-amine] was run?
Answer: < 5 µM

Question: How did the IC50 turn out when c1csc(-c2ccc3ncnc(Nc4ccc(N5CCOCC5)cc4)c3c2)n1 [Example 18, (4-Morpholin-4-yl-phenyl)-(6-thiazol-2-yl-quinazolin-4-yl)-amine] was run?
Answer: < 1 µM

Question: Which IC50 does the source give for COc1ncc(-c2ccc3ncnc(Nc4ccc(N5CCOCC5)cc4)c3c2)cn1 [Example 19, [6-(2-Methoxy-pyrimidin-5-yl)-quinazolin-4-yl]-(4-morpholin-4-yl-phenyl)-amine] here?
Answer: < 1 µM

Question: With Cc1ccc(CNC(=O)c2ccc3ncnc(Nc4ccc(N5CCOCC5)cc4)c3c2)cc1 [Example 29, 4-(4-Morpholin-4-yl-phenylamino)-quinazoline-6-carboxylic acid 4-methyl-benzylamide] as the compound, how does the IC50 read?
Answer: < 5 µM

Question: How did the IC50 turn out when CCOC(=O)c1cccc(NC(=O)c2ccc3ncnc(Nc4ccc(N5CCOCC5)cc4)c3c2)c1 [Example 27, 3-{[4-(4-Morpholin-4-yl-phenylamino)-quinazoline-6-carbonyl]-amino}-benzoic acid ethyl ester] was run?
Answer: < 5 µM

Question: Which IC50 does the source give for CN(C)Cc1ccc(-c2ccc3ncnc(Nc4ccc(N5CCOCC5)cc4)c3c2)o1 [Example 13, [6-(5-Dimethylaminomethyl-furan-2-yl)-quinazolin-4-yl]-(4-morpholin-4-yl-phenyl)-amine] here?
Answer: < 5 µM

Question: Which IC50 does the source give for O=C(Nc1ccc2ncnc(Nc3ccc(N4CCOCC4)cc3)c2c1)c1ccco1 [Example 25, Furan-2-carboxylic acid [4-(4-morpholin-4-yl-phenylamino)-quinazolin-6-yl]-amide] here?
Answer: < 25 µM

Question: Which IC50 does the source give for CC(C)(C)OC(=O)Nc1ccc(-c2ccc3ncnc(Nc4ccc(N5CCOCC5)cc4)c3c2)cc1 [Example 36, {4-[4-(4-Morpholin-4-yl-phenylamino)-quinazolin-6-yl]-phenyl}-carbamic acid tert-butyl ester] here?
Answer: < 1 µM
